How the values were obtained:
Type in all cases: in vivo
[1] = test system: Erysiphe graminis f. sp. tritici; test: Test E: wheat powdery mildew, spray the day before inoculation (disease rating, 100 = 100% disease control); conditions: spray the day before inoculation, compounds without asterisk (not 40 or 10 ppm)
In short: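 Wheat seedlings sprayed to run-off with compound suspended in acetone/water 50/50 with 250 ppm Trem 014 (200 ppm equivalent to 500 g/ha); inoculated next day with Erysiphe graminis f. sp. tritici spore dust. Kept 7 days at 20° C, then rated 0–100% disease control versus controls.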

Phytophthora infestans [2] = test: whole plant or invertebrate; conditions: tomato late blight; spray 17 h after inoculation; compounds without asterisk (not 40 or 10 ppm)
[3] = test system: Pseudoperonospora cubensis; test: Test F: cucumber downy mildew, DMSO/acetone/water test suspension, spray the day before inoculation (disease rating, 100 = 100% disease control); conditions: DMSO/acetone/water suspension, spray the day before inoculation, compounds without asterisk
Source text: The test compounds were first dissolved in dimethyl sulfoxide (DMSO) in an amount equal to 4% of the final volume and then suspended at the desired concentration (in ppm) in acetone and purified water (30/70 mix by volume). The resulting test suspensions were then used in test F. Spraying a 250 ppm test suspension on the test plants was the equivalent of a rate of 250 g/ha.
The test suspension was sprayed on cucumber seedlings. The following day the seedlings were inoculated with a spore suspension of Pseudoperonospora cubensis (the causal agent of cucumber downy mildew) and incubated in a saturated atmosphere at 20° C. for 24 h, and then moved to a growth chamber at 20° C. for 6 days, after which disease ratings were made.
Results for Tests A-F are given in Table A. In the table, a rating of 100 indicates 100% disease control and a rating of 0 indicates no disease control (relative to the controls). A dash (-) indicates no test results.

Plasmopara viticola = test: Test B: grape downy mildew, spray 24 h after inoculation (disease rating, 100 = 100% disease control); conditions: spray 24 h after inoculation, compounds without asterisk (not 40 or 10 ppm)
In short: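 Grape seedlings were inoculated with Plasmopara viticola and held 24 h saturated at 20 °C, then sprayed to run-off with compound suspension (acetone/water with 250 ppm Trem 014; 200 ppm ≈ 500 g/ha). After 5 days at 20 °C and 24 h saturation, disease was rated from 0 to 100% control versus untreated.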

Phytophthora infestans [4] = test: whole plant or invertebrate; conditions: tomato late blight; spray the day before inoculation; compounds without asterisk (not 40 or 10 ppm)

| Structure (SMILES) | Test E disease rating (100 = 100% disease control, 0 = no disease control) [1] [%] | Test D disease rating (100 = 100% disease control, 0 = no disease control) (Phytophthora infestans [2]) [%] | Test F disease rating (100 = 100% disease control, 0 = no disease control) [3] [%] | Test B disease rating (100 = 100% disease control, 0 = no disease control) (Plasmopara viticola) [%] | Test C disease rating (100 = 100% disease control, 0 = no disease control) (Phytophthora infestans [4]) [%] |
| --- | --- | --- | --- | --- | --- |
| Cc1ccc(C)c(CC(=O)N2CCC(c3nc(C(=O)N(C)[C@H](C)c4cccc(C(F)(F)F)c4)cs3)CC2)c1 [compound 67] | 0 | 0 | 99 | 10 | 68 |
| Cc1ccc(C)c(CC(=O)N2CCC(c3nc(C(=O)N(C)[C@@H](C)c4ccccc4)cs3)CC2)c1 [compound 68] | 0 | 16 | 95 | 47 | 100 |
| COc1cccc([C@@H](C)N(C)C(=O)c2csc(C3CCN(C(=O)Cc4cc(C)ccc4C)CC3)n2)c1 [compound 69] | 29 | 0 | 100 | 88 | 100 |
| CC(c1ccccn1)N(C)C(=O)c1csc(C2CCN(C(=O)Cc3cccc(C(F)(F)F)c3)CC2)n1 (centres unmarked) [compound 75] | 0 | 72 | 0 | 16 | 100 |
| C[C@H](c1ccccc1)N(C)C(=O)c1csc(C2CCN(C(=O)Cc3cc(Cl)ccc3Cl)CC2)n1 [compound 77] | 88 | 100 | 50 | 100 | 100 |
| Cc1ccc(F)cc1CC(=O)N1CCC(c2nc(C(=O)N(C)[C@H](C)c3ccccc3)cs2)CC1 [compound 80] | 29 | 70 | 49 | 99 | 100 |
| COc1ccc(Br)cc1CC(=O)N1CCC(c2nc(C(=O)N(C)[C@H](C)c3ccccc3)cs2)CC1 [compound 81] | 0 | 100 | 50 | 100 | 100 |
| CCCC(c1ccccc1)N(C)C(=O)c1csc(C2CCN(C(=O)Cc3cc(C)ccc3C)CC2)n1 (centres unmarked) [compound 82] | 55 | 53 | 93 | 100 | 97 |
| C[C@H](c1ccccc1)N(C)C(=O)c1csc(C2CCN(C(=O)Cc3cc(Cl)ccc3Br)CC2)n1 [compound 86] | 0 | 100 | 86 | 99 | 99 |
| C[C@H](c1ccccc1)N(C)C(=O)c1csc(C2CCN(C(=O)Cc3cc(C(F)(F)F)ccc3C(F)(F)F)CC2)n1 [compound 87] | 0 | 8 | 100 | 79 | 88 |
| Cc1ccc(C)c(CC(=O)N2CCC(c3nc(C(=O)N(C)C(C)c4cccs4)cs3)CC2)c1 (centres unmarked) [compound 89] | 43 | 99 | 93 | 100 | 99 |
| Cc1nc(CC(=O)N2CCC(c3nc(C(=O)N(C)[C@H](C)c4ccccc4)cs3)CC2)c(C)s1 [compound 92] | 0 | 100 | 100 | 83 | 100 |
| Cc1ccc(C)c(CC(=O)N2CCC(c3nc(C(=O)N(C)C(C)c4ccccn4)cs3)CC2)c1 (centres unmarked) [compound 94] | 0 | 100 | 93 | 0 | 100 |
| Cc1ccc(C)c(CC(=O)N2CCC(c3nc(C(=O)N(C)C(C)c4cccnc4)cs3)CC2)c1 (centres unmarked) [compound 95] | 0 | 83 | 97 | 0 | 100 |
| CCc1cccc(CC(=O)N2CCC(c3nc(C(=O)N(C)[C@H](C)c4ccccc4)cs3)CC2)c1 [compound 119] | 89 | 33 | 100 | 95 | 99 |
| Cc1ccc(C(F)(F)F)cc1CC(=O)N1CCC(c2nc(C(=O)N(C)[C@H](C)c3ccccc3)cs2)CC1 [compound 124] | 71 | 0 | 90 | 100 | 100 |
| COc1ccc(C)cc1CC(=O)N1CCC(c2nc(C(=O)N(C)[C@H](C)c3ccccc3)cs2)CC1 [compound 125] | 94 | 99 | 100 | 100 | 100 |
| Cc1cc(C(F)(F)F)nn1CC(=O)N1CCC(c2nc(C(=O)N(C)[C@H](C)c3ncc(Cl)cc3Cl)cs2)CC1 [compound 143] | 0 | 99 | 50 | 69 | 100 |
| C[C@H](c1ccccc1)N(C)C(=O)c1coc(C2CCN(C(=O)Nc3cccc(C(F)(F)F)c3)CC2)n1 [compound 158] | 0 | 0 | 90 | 9 | 95 |
| COc1ccc(C)cc1NC(=S)N1CCC(c2nc(C(=O)N(C)[C@H](C)c3ccccc3)cs2)CC1 [compound 159] | 73 | 91 | 93 | 95 | 99 |
| C[C@H](c1ccccc1)N(C)C(=O)c1csc(C2CCN(C(=S)Nc3cccc(C(F)(F)F)c3)CC2)n1 [compound 160] | 0 | 0 | 50 | 47 | 40 |
| Cc1ccc(C)c(CC(=O)N2CCC(c3nc(C(=O)N(C)Cc4ccccc4)cs3)CC2)c1 [compound 167] | 0 | 0 | 99 | 27 | 97 |
